Source: patent publication US20200237901A1 (priority 2016, published 2020)
Values joined by “and” are separate entries in the source; they are usually repeats but may differ in a detail not shown here. Equal entries are not always repeated.

Key:
[1] = female, Balb/c, mouse, in vivo, ip
[2] = tested on: Enterovirus 71 Hn2 strain (EV71-Hn2); format: cell-based
[3] = tested on: murine hepatitis coronavirus A59 strain (MHV-A59); format: cell-based
[4] = tested on: Ectromelia Virus Moscow strain (ECTV-MOS strain); parameters: species or system Balb/c mice; details: mouse, in vivo, ip

Structure (SMILES): Nc1ccn(C[C@@H](CO)OCP(=O)(O)O)c(=O)n1 [Cidofovir]
- Case-Fatality Rate (%) [1]: 0%
- Death Number [1]: 0
- Survival Number [1]: 15
- Survival Rate (%) [1]: 100%
- effect on the titers of enterovirus (EV71) [2]: no effects
- effect on the titers of coronavirus (MHV) [3]: no effects
- Case-Fatality Rate (%) [4]: 6.67% and 13.33%
- Death Number [4]: 1 and 2
- Survival Number [4]: 14 and 13
- Survival Rate (%) [4]: 86.67% and 93.33%
